{
  "source": "paper PMC6690746",
  "about": "(European journal of medicinal chemistry, 2018)",
  "type_in_all_cases": "cell-based, human",
  "key": {"T98G cells": {"system": "T98G cells", "test": "Antitumor activity", "conditions": "for Maximal killing activity: concentration not stated at this place; for EC50: Homo sapiens, read-out: Antitumor activity EC50; for Fold increase in EC50 value compared with 8: versus compound 8 (87 nM)"}, "[1]": {"system": "NCI-60 cancer cell line panel", "test": "NCI 60 cell screen", "conditions": "for Loss in cell number: NCI-60, the 4 cell lines killed"}, "HepG2 (liver)": {"system": "HepG2 (liver)", "test": "Cell-killing activity", "conditions": "HepG2, at 1–10 μM"}, "PD-GBM cells": {"system": "PD-GBM cells", "test": "Cell-killing activity in PD-GBM cells, all subtypes together", "conditions": "applied at 1–10 μM"}, "[2]": {"conditions": "NCI-60, the 11 cell lines with halted proliferation"}, "[3]": {"conditions": "NCI-60, the 41 cell lines with reduced proliferation rate"}},
  "note": "Entries after “also recorded” stand apart in the source; their conditions may differ.",
  "data": [
    {"compound": "CCn1c2ccccc2c2cc(C(=O)Cc3ccccc3)ccc21", "note": "[Compound 13, 1-(9-ethyl-9H-carbazol-3-yl)-2-phenylethan-1-one]", "values": [
      {"measurement": "Effect on T98G cells in words", "setting": "T98G cells; 72 h", "result": "only weakly active at concentrations above five micromolar or essentially inactive; also recorded: did not significantly affect T98G cell viability"}
    ]},
    {"compound": "CCn1c2c(c3ccccc31)CN(C(=O)c1ccc(C)c3ccccc13)CC2", "note": "[Compound 35, 5-ethyl-2-[(4-methylnaphthalen-1-yl)carbonyl]-1H,2H,3H,4H,5H-pyrido[4,3-b]indole]", "values": [
      {"measurement": "Maximal killing activity", "setting": "T98G cells; 72 h", "result": "35–45%"}
    ]},
    {"compound": "CCn1c2ccccc2c2cc(C(=O)c3cccc4ncccc34)ccc21", "note": "[Compound 20, 9-ethyl-3-(quinoline-5-carbonyl)-9H-carbazole]", "values": [
      {"measurement": "Loss in cell number", "setting": "[1]", "result": "13% to 60%"},
      {"measurement": "Percent growth inhibition", "setting": "[1]; [2]", "result": "9% to −1%"},
      {"measurement": "Percent growth inhibition", "setting": "[1]; [3]", "result": "67% to 10%"}
    ]},
    {"compound": "COC(=O)Nc1nc2cc(C(=O)c3cccs3)ccc2[nH]1", "note": "[Compound 3, nocodazole, reference compound]", "values": [
      {"measurement": "Maximal killing (% ± SEM)", "setting": "T98G cells; 72 h, at 10 μM", "result": "45.6% ± 1.7"},
      {"measurement": "EC50", "setting": "T98G cells; 72 h", "result": 29, "unit": "nM"}
    ]},
    {"compound": "CCn1c2ccccc2c2cc(C(=O)N3CCN(C)CC3)ccc21", "note": "[Compound 9, 9-ethyl-3-(4-methylpiperazine-1-carbonyl)-9H-carbazole]", "values": [
      {"measurement": "Effect on T98G cells in words", "setting": "T98G cells; 72 h", "result": "only weakly active at concentrations above five micromolar or essentially inactive; also recorded: did not significantly affect T98G cell viability"}
    ]},
    {"compound": "COc1ccc(/C=C\\c2cc(OC)c(OC)c(OC)c2)cc1O", "note": "[Compound 1, combretastatin A-4, reference compound]", "values": [
      {"measurement": "Maximal killing", "setting": "T98G cells; 72 h, at 10 nM", "result": "30.4% ± 2.1"},
      {"measurement": "EC50", "setting": "T98G cells; 72 h", "result": 0.6, "unit": "nM"}
    ]},
    {"compound": "CCn1c2ccccc2c2cc(C(=O)c3cccc4c3CCCN4)ccc21", "note": "[Compound 23]", "values": [
      {"measurement": "Effect on T98G cells in words", "setting": "T98G cells; 72 h", "result": "only weakly active at concentrations above five micromolar or essentially inactive; also recorded: did not significantly affect T98G cell viability"},
      {"measurement": "Effect on NCI-60 cell lines in words", "setting": "[1]; NCI-60 panel", "result": "did not significantly affect the viability and proliferation of any of the cell lines"},
      {"measurement": "Growth inhibition: Delta", "setting": "[1]; NCI-60 panel", "result": 10.42},
      {"measurement": "Growth inhibition: Mean", "setting": "[1]; NCI-60 panel, over all cell lines", "result": 102.05}
    ]},
    {"compound": "CCn1c2ccccc2c2cc(C(=S)c3ccc(C)c4ccccc34)ccc21", "note": "[Compound 26, 9-ethyl-3-(4-methylnaphthalene-1-carbothioyl)-9H-carbazole]", "values": [
      {"measurement": "Effect on T98G cells in words", "setting": "T98G cells; 72 h", "result": "only weakly active at concentrations above five micromolar or essentially inactive; also recorded: did not significantly affect T98G cell viability"}
    ]},
    {"compound": "CC[C@]1(O)C[C@@H]2CN(CCc3c([nH]c4ccccc34)[C@@](C(=O)OC)(c3cc4c(cc3OC)N(C)[C@H]3[C@@](O)(C(=O)OC)[C@H](OC(C)=O)[C@]5(CC)C=CCN6CC[C@]43[C@@H]65)C2)C1", "note": "[vinblastine, reference compound]", "values": [
      {"measurement": "Maximal killing activity", "setting": "T98G cells; 72 h", "result": "36.0% ± 2.3"}
    ]},
    {"compound": "CCCn1c2ccccc2c2cc(C(=O)c3ccc(C)c4ccccc34)ccc21", "note": "[Compound 16, 9-propyl-3-[(4-methylnaphthalen-1-yl)carbonyl]-9H-carbazole]", "values": [
      {"measurement": "Effect on T98G cells in words", "setting": "T98G cells; 72 h", "result": "only weakly active at concentrations above five micromolar or essentially inactive; also recorded: did not significantly affect T98G cell viability"},
      {"measurement": "Fold increase in EC50 value compared with 8", "setting": "T98G cells", "result": 115, "unit": "fold"}
    ]},
    {"compound": "CCn1c2ccccc2c2cc(C(=O)c3cccc4c3NCCC4)ccc21", "note": "[Compound 24, 9-ethyl-3-(1,2,3,4-tetrahydroquinoline-8-carbonyl)-9H-carbazole]", "values": [
      {"measurement": "Effect on T98G cells in words", "setting": "T98G cells; 72 h", "result": "only weakly active at concentrations above five micromolar or essentially inactive; also recorded: did not significantly affect T98G cell viability"}
    ]},
    {"compound": "CCn1c2ccccc2c2cc(C(O)c3ccc(C)c4ccccc34)ccc21", "note": "(stereo not drawn) [Compound 27, (9-ethyl-9H-carbazol-3-yl)(4-methylnaphthalen-1-yl)methanol]", "values": [
      {"measurement": "Fold increase in EC50 value compared with 8", "setting": "T98G cells", "result": 6, "unit": "fold"},
      {"measurement": "Loss in cell number", "setting": "[1]", "result": "13% to 60%"},
      {"measurement": "Percent growth inhibition", "setting": "[1]; [2]", "result": "9% to −1%"},
      {"measurement": "Percent growth inhibition", "setting": "[1]; [3]", "result": "67% to 10%"}
    ]},
    {"compound": "CCn1c2ccccc2c2cc(C(=O)c3cccc4ccccc34)ccc21", "note": "[Compound 14, 9-ethyl-3-(naphthalene-1-carbonyl)-9H-carbazole]", "values": [
      {"measurement": "Fold increase in EC50 value compared with 8", "setting": "T98G cells", "result": 20, "unit": "fold"}
    ]},
    {"compound": "CCn1c2ccccc2c2cc(C(=O)c3ccc(C)c4ccccc34)ccc21", "note": "[Compound 8, 9-ethyl-3-[(4-methylnaphthalen-1-yl)carbonyl]-9H-carbazole]", "values": [
      {"measurement": "Maximal killing activity", "setting": "T98G cells; 72 h", "result": "35–45%"},
      {"measurement": "Loss in cell number", "setting": "[1]", "result": "13% to 60%"},
      {"measurement": "Percent growth inhibition", "setting": "[1]; [2]", "result": "9% to −1%"},
      {"measurement": "Percent growth inhibition", "setting": "[1]; [3]", "result": "67% to 10%"}
    ]},
    {"compound": "CCn1c2ccccc2c2cc(C(=O)N3CCCc4ccccc43)ccc21", "note": "[Compound 25, 9-ethyl-3-[(1,2,3,4-tetrahydroquinolin-1-yl)carbonyl]-9H-carbazole]", "values": [
      {"measurement": "Activity in HepG2 cells in words", "setting": "HepG2 (liver)", "result": "inactive"},
      {"measurement": "PD-GBM cells killed", "setting": "PD-GBM cells", "result": "95–100%"}
    ]},
    {"compound": "Cc1ccc(C(=O)c2ccc3c(c2)c2ccccc2n3CC(F)(F)F)c2ccccc12", "note": "[Compound 18, 3-(4-methylnaphthalene-1-carbonyl)-9-(2,2,2-trifluoroethyl)-9H-carbazole]", "values": [
      {"measurement": "Effect on T98G cells in words", "setting": "T98G cells; 72 h", "result": "only weakly active at concentrations above five micromolar or essentially inactive"},
      {"measurement": "Maximal killing activity", "setting": "T98G cells; 72 h", "result": "35–45%"},
      {"measurement": "Fold increase in EC50 value compared with 8", "setting": "T98G cells", "result": 64, "unit": "fold"}
    ]}
  ]
}
